The source of these data is US20110144027A1, “PHARMACEUTICAL COMPOSITIONS FOR PROMOTING WOUND HEALING” (priority 2006, published 2011).

Where two headings read alike, the source gives them in different places.

For data set [1], the system named is wound. The settings on record: healthy BALB/C mice; cited from earlier work.
The nature of data set [2]: Systemic absorption in patients (plasma HPLC/MS/MS assay). The data set is classed as in vivo, human. The settings on record: any topical dose concentration (5, 50, 500 μg/g), initial, day 16 and day 28, LLOQ 1.0 ng/mL. The source says:
(§1) Testing of concentrations of 2-[2-(4-Chlorophenyl)ethoxy]adenosine in blood plasma: 2-[2-(4-Chlorophenyl)ethoxy]adenosine concentrations in blood plasma taken from a patient may be quantitated. A non-limiting example of an assay to quantitate 2-[2-(4-Chlorophenyl)ethoxy]adenosine in blood plasma is an HPLC/MS/MS bioanalytical assay. The assay used an organic precipitation of protein accomplished with addition of acetonitrile to plasma followed by a thorough mixing and centrifugation to separate the denatured protein and supernatant. Aliquots of the supernatant were injected onto a HPLC system equipped with a triple quadrapole mass spectrometer which provided highly specific and sensitive detection of the molecular ion of interest. Concentrations of 2-[2-(4-Chlorophenyl)ethoxy]adenosine were determined from peak area ratios of 2-[2-(4-Chlorophenyl)ethoxy]adenosine and the internal standard using weighted linear regression curves (1/×). The assay was highly robust and reproducible within the validated range of 1.0 to 100 ng/mL.
2-[2-(4-Chlorophenyl)ethoxy]adenosine was administered to patients with chronic, neuropathic, diabetic foot ulcers (DFU). […]

Data set [3] can be described thus: Toxicokinetics after topical application on full-thickness wounds in minipigs. The data set is classed as in vivo, Gottingen SPF minipigs. As to conditions: for AUC(0-t) / Cmax / half-life / Tmax: Gottingen SPF, minipig, plasma, topical or ocular, 2000 ug/day, topical 2000 μg/day (500 μg/g Gel), Day 6; for AUC(0-t): read-out: AUC24 h (Mean ± CV); for Cmax: read-out: Cmax (Mean ± CV); for half-life: read-out: T1/2 (Mean ± CV) (converted); for Tmax: read-out: Tmax (Mean ± CV).
Text: as §1
The objective of this study was to assess the local and the systemic toxicity of the 2-[2-(4-chlorophenyl)ethoxy]adenosine formulation of the instant invention. The testing occurred in Gottingen SPF minipigs. 20 μg/g, 100 μg/g and 500 μg/g concentration of the 2-[2-(4-chlorophenyl)ethoxy]adenosine formulation were created using the methods described in Example I. The 20 μg/g and 100 μg/g formulation are described below. The components of the 500 μg/g formulation and the placebo control were as described in Example 1.
The total dosage of 2-[2-(4-chlorophenyl)ethoxy]adenosine per minipig ranged from 80 μg to 2000 μg/day. The formulation was administered topically once per day in 1 mL (1 g) doses at 20 μg/g, 100 μg/g and 500 μg/g concentration per wound per administration on surgically established full-thickness wounds until wound closure. Each minipig had multiple (4) wounds that received treatment.
A total of 40 Gottingen SPF minipigs (20 males and 20 females) were included in the study. The animals were allocated into four groups each of 4 males and 4 females. In addition, 4 animals (2 of each sex per group), were included as recovery animals for the control/placebo group (Group 1) and the high-dose group (Group 4).
From Day 1 through Day 13, 2-[2-(4-chlorophenyl)ethoxy]adenosine formulation at either 20 μg/g, 100 μg/g or 500 μg/g concentration was applied topically on surgically established circular full-thickness wounds (wound diameter 20 mm; 4 wounds per animal) on a daily basis in a dose volume of approximately 1 mL per wound until wound closure. The dose levels and animal numbers are provided Table 20.
Toxicokinetic sampling occurred on Day 6 at the following time points: pre-treatment, and 0.5, 1, 3, 5, 7, 9, 12 and 24 hours post-treatment. […] Non-compartmental pharmacokinetic analysis of plasma 2-[2-(4-chlorophenyl)ethoxy]adenosine concentration profiles in Groups 2, 3, and 4 (low-, mid- and high-dose) animals yielded pertinent pharmacokinetic parameters, which are summarized by treatment and gender in Table 20.

For data set [4], the system named is wound. The settings on record: rats; cited from earlier work.

As for `Nc1nc(OCCc2ccc(Cl)cc2)nc2c1ncn2[C@@H]1O[C@H](CO)[C@@H](O)[C@H]1O` [2-[2-(4-chlorophenyl)ethoxy]adenosine], in data set [1], the wound healing result is “promote wound healing”. Besides, the “systemic absorption (blood plasma, HPLC/MS/MS assay)” value in data set [2] is reported as “No systemic absorption”. For the same molecule, in data set [3] (Female minipigs), the AUC(0-t) came to 6.65 ng·h/mL, the Cmax (commonly the highest concentration seen after dosing) was determined as 0.45 ng/mL, the half-life is 28.4 h and the Tmax (usually the time from dosing to the highest level) stood at 7.5 h. In addition, in data set [3] (Male minipigs), the AUC(0-t) worked out at 7.25 ng·h/mL, the Cmax turned out to be 0.46 ng/mL, the half-life is 122 h and the Tmax worked out at 7.8 h. Further, in data set [3] (minipigs, wound healing phase, 80-2000 μg/day), the “absorption into the systemic circulation from topical administration in open wounds” value was “minimal”.

As for `CCNC(=O)[C@H]1O[C@@H](n2cnc3c(N)nc(NCCc4ccc(CCC(=O)O)cc4)nc32)[C@H](O)[C@@H]1O` [CGS 21680, 2-[p-(carboxyethyl)phenylethylamino]-5′-N-ethylcarboxamidoadenosine], in data set [4], the “rate of wound closure” value is given as “increase the rate of wound closure”.
